Molecules are shown by their SMILES.

Assay [1] concerns Japanese and Caucasian healthy subjects. The experiment in a line: Total cholesterol determination, Study 3 (healthy volunteers). The format is in vivo, human. Particulars: for [Total cholesterol] % Mean % variation vs baseline 10 days: 200 mg q.d.; for [Total cholesterol] levels: Study 3. The protocol:
(§1) Randomized, double-blind, placebo-controlled study for the assessment of safety, tolerability, pharmacokinetics, and pharmacodynamics, of multiple oral doses of Compound 1 (dosed as a [Compound 1:HCl:3H2O]) in Japanese and Caucasian healthy subjects.
(§2) Randomized, double-blind, placebo-controlled, single center, sequential design study.
(§3) Compound 1 (dosed as a [Compound 1:HCl:3H2O]) is administered for 10 days as oral film-coated tablet (25 and 100 mg and matching placebos). Placebo are provided as a matching tablet.
(§4) The study drug is ingested with 240 mL water after a standardized breakfast on Days 2-9. On PK days (Day 1 and Day 10) the study drug is administered in a fasted state (subjects will receive lunch 4 h after dosing on Day 1 and Day 10).
(§5) 10 Japanese subjects (6 active, 4 placebo) and 10 Caucasian subjects (6 active, 4 placebo) will receive once daily an oral dose of 200 mg Compound 1 (dosed as a [Compound 1:HCl:3H2O]) or matching placebo as two tablets of 100 mg or matching placebo for 10 days. For practical reasons, these subjects may be split over separate groups, each group consisting of an equal number of Japanese and Caucasian Compound 1 (dosed as a [Compound 1:HCl:3H2O]) treated subjects and Japanese and Caucasian placebo subjects.
This method is based on the determination of Δ^4 cholestenone after enzymatic cleavage of the cholesterol ester by cholesterol esterase, conversion of cholesterol by cholesterol oxidase, and subsequent measurement by the Trinder reaction of the hydrogen peroxide formed (Allain et al., 1974).
Cholesterol esters are cleaved by the action of cholesterol esterase to yield free cholesterol and fatty acids. Cholesterol oxidase then catalyzes the oxidation of cholesterol to cholest-4-en-3-one and hydrogen peroxide. In the presence of peroxidase, the hydrogen peroxide formed effects the oxidative coupling of phenol and 4-aminophenazone to form a red quinone-imine dye. The color intensity of the dye formed is directly proportional to the cholesterol concentration. It is determined by measuring the increase in absorbance.
Human serum and plasma samples cholesterol determination was done on a Roche/Hitachi Cobas c 701/702 system which automatically calculate the analyte concentration of each sample.

For assay [2] the test system is unchanged. The experiment in a line: [HDL] determination, Study 3 (healthy volunteers). In kind it is in vivo, human. The conditions noted are these: 200 mg q.d. The protocol:
as §1, §2, §3, §4, §5
This assay relies on a homogeneous enzymatic colorimetric test. In the presence of magnesium ions, dextran sulfate selectively forms water-soluble complexes with LDL, VLDL and chylomicrons which are resistant to PEG-modified enzymes.
The cholesterol concentration of [HDL]-cholesterol is determined enzymatically by cholesterol esterase and cholesterol oxidase coupled with PEG to the amino groups (approx. 40%).
In the presence of peroxidase, the hydrogen peroxide generated reacts with 4-amino-antipyrine and Sodium N-(2-hydroxy-3-sulfopropyl)-3,5-dimethoxyaniline (HSDA) to form a purple-blue dye. The color intensity of this dye is directly proportional to the cholesterol concentration and is measured photometrically.
Human serum and plasma samples [HDL] determination was done on a Roche/Hitachi Cobas c 701/702 system which automatically calculate the analyte concentration of each sample. Samples containing precipitates are centrifuged before performing the assay.

As to `O=C(Nc1nc2cccc(-c3ccc(CN4CCS(=O)(=O)CC4)cc3)n2n1)C1CC1` [Compound 1, cyclopropanecarboxylic acid {5-[4-(1,1-dioxo-thiomorpholin-4-ylmethyl)-phenyl]-[1,2,4]triazolo[1,5-a]pyridin-2yl}-amide], the “[Total cholesterol] % Mean % variation vs baseline 10 days” value is on record as −2.6% in assay [1] (Caucasian) and −0.4% in assay [1] (Japanese). Also, the “[Total cholesterol] levels” value in assay [1] (Caucasian 200 mg q.d. for 10 days, day 17) stood at 4.57 mmol/L; in assay [1] (Caucasian 200 mg q.d., day 0), 4.77 mmol/L; in assay [1] (Caucasian 200 mg q.d., day 5) it was 4.5 mmol/L; in assay [1] (Caucasian 200 mg q.d., day 10), 4.53 mmol/L; in assay [1] (Japanese 200 mg q.d. for 10 days, day 17), 4.52 mmol/L; in assay [1] (Japanese 200 mg q.d., day 0) it was 4.47 mmol/L. Also, the “[Total cholesterol] levels” value in assay [1] (Japanese 200 mg q.d., day 5) was found to be 4.18 mmol/L; in assay [1] (Japanese 200 mg q.d., day 10), 4.45 mmol/L. Moreover, the “[HDL] % Mean % variation vs baseline 10 days” value in assay [2] (Caucasian) was 6%; in assay [2] (Japanese), 15.6%. For the same compound, the “[HDL] levels” value was 1.5 mmol/L in assay [2] (Caucasian, day 0); 1.5 mmol/L in assay [2] (Caucasian, day 5); 1.6 mmol/L in assay [2] (Caucasian, day 10); 1.6 mmol/L in assay [2] (Caucasian, day 17); 1.3 mmol/L in assay [2] (Japanese, day 0); 1.3 mmol/L in assay [2] (Japanese, day 5). Moreover, the “[HDL] levels” value in assay [2] (Japanese, day 10) is on record as 1.5 mmol/L; in assay [2] (Japanese, day 17) it was 1.4 mmol/L.
